Test results reported in US20150011466A1, “APJ Receptor Compounds” (priority 2012, published 2015).
Like-named read-outs stand apart in the source and are kept apart here. Where a SMILES comes first, the peptide text is derived from it. [ ]: non-standard residue; d: D form. The star is where a group is joined. Palmitoyl = CCCCCCCCCCCCCCCC(=O)*; Aib = CC(C)(N)C(=O)O

Assays:
APJ receptor = target: T1, APJ receptor (Homo sapiens, UniProt P35414); assay: HTRF cAMP assay, inhibition of NKH477 stimulated cAMP in Human TRex cells expressing APJ upon doxycycline induction (APJ-hTREX); type: cell-based; conditions: for percent intrinsic activity at 0.3 µM: read-out: % IA (@ 300 nM); for Ranking: class combining EC50 and % histamine
T1 construct: expressed in transfected cells; host or cells: Human TRex cells (doxycycline-inducible)
T1 sequence (P35414 1-380): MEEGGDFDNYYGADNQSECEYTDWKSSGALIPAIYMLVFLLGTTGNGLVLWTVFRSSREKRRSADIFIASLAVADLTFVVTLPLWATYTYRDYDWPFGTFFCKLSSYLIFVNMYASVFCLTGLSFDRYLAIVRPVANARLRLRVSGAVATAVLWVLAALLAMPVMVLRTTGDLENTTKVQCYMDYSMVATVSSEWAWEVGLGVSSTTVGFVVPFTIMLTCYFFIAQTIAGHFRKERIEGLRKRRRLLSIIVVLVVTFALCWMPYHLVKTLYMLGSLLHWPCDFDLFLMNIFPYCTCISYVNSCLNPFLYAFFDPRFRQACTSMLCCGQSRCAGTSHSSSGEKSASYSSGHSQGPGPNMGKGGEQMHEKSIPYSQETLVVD
Procedure, shortened: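 Cells stimulated with NKH477 and cAMP measured by HTRF competitive immunoassay (cryptate anti-cAMP antibody, d2-labeled cAMP). APJ-hTREX cells induced with […] doxycycline and seeded overnight at 40 k/well.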

[1] = inhibition of NKH477 stimulated cAMP, APJ-hTREX cells, read-out: APJ-hTREX EC50

Row | SMILES | percent intrinsic activity at 0.3 µM (APJ receptor) | Histimine (% vs. 48/40) (Histimine (% vs. 48/40)) | EC50 (APJ receptor) | Ranking (APJ receptor) | EC50 (APJ receptor; [1])
1 | CCCCCCCCCCCCCCCC(=O)N[C@H](C(=O)N[C@H](C(=O)N[C@@H](Cc1ccccc1)C(=O)N[C@@H](CCCNC(=N)N)C(=O)N[C@@H](CO)C(=O)N[C@@H](CO)C(=O)N[C@@H](CCC(=O)O)C(=O)N[C@H](CCCCN)C(=O)N[C@@H](CCCNC(=N)N)C(=O)N[C@@H](CCCNC(=N)N)C(=O)N[C@@H](CO)C(=O)N[C@@H](C)C(=O)N[C@@H](CC(=O)O)C(=O)N[C@H](C(=O)N[C@@H](Cc1ccccc1)C(=O)N[C@@H](CC(=O)O)C(N)=O)[C@@H](C)CC)C(C)C)[C@@H](C)O [Compound 41] (Palmitoyl-TVFRSSE[dK]RRSADIFD-NH2) | 60% | 48% | – | – | –
2 | CCCCCCCCCCCCCCCC(=O)N[C@H](C(=O)N[C@H](C(=O)N[C@@H](Cc1ccccc1)C(=O)N1CCC[C@H]1C(=O)N[C@@H](CO)C(=O)N[C@@H](CO)C(=O)N[C@@H](CCC(=O)O)C(=O)N[C@H](CCCCN)C(=O)N[C@@H](CCCNC(=N)N)C(=O)N[C@@H](CCCNC(=N)N)C(=O)N[C@@H](CO)C(=O)N[C@@H](C)C(=O)N[C@@H](CC(=O)O)C(=O)N[C@H](C(=O)N[C@@H](Cc1ccccc1)C(=O)N[C@H](C(N)=O)[C@@H](C)CC)[C@@H](C)CC)C(C)C)[C@@H](C)O [Compound 44] (Palmitoyl-TVFPSSE[dK]RRSADIFI-NH2; C-terminus assumed) | 74% | 7% | 111 nM | **** (EC50 101-500 nM and % histamine<35%) | –
3 | CCCCCCCCCCCCCCCC(=O)N[C@H](C(=O)N[C@H](C(=O)N[C@@H](Cc1ccccc1)C(=O)N[C@@H](CCCNC(=N)N)C(=O)N[C@@H](CO)C(=O)N[C@@H](CO)C(=O)N1CCC[C@H]1C(=O)N[C@H](CCCCN)C(=O)N[C@@H](CCCNC(=N)N)C(=O)N[C@@H](CCCNC(=N)N)C(=O)N[C@@H](CO)C(=O)N[C@@H](C)C(=O)N[C@@H](CC(=O)O)C(=O)N[C@H](C(=O)N[C@@H](Cc1ccccc1)C(=O)N[C@H](C(N)=O)[C@@H](C)CC)[C@@H](C)CC)C(C)C)[C@@H](C)O [Compound 47] (Palmitoyl-TVFRSSP[dK]RRSADIFI-NH2; C-terminus assumed) | 83% | 60% | 13.3 nM | *** (EC50<100 nM and % histamine>35%) | –
4 | CCCCCCCCCCCCCCCC(=O)N[C@H](C(=O)N[C@H](C(=O)N[C@@H](Cc1ccccc1)C(=O)N[C@@H](CCCNC(=N)N)C(=O)N[C@@H](CO)C(=O)N[C@@H](CO)C(=O)N[C@@H](CCC(=O)O)C(=O)N1CCC[C@H]1C(=O)N[C@@H](CCCNC(=N)N)C(=O)N[C@@H](CCCNC(=N)N)C(=O)N[C@@H](CO)C(=O)N[C@@H](C)C(=O)N[C@@H](CC(=O)O)C(=O)N[C@H](C(=O)N[C@@H](Cc1ccccc1)C(=O)N[C@H](C(N)=O)[C@@H](C)CC)[C@@H](C)CC)C(C)C)[C@@H](C)O [Compound 48] (Palmitoyl-TVFRSSEPRRSADIFI-NH2; C-terminus assumed) | 78% | 5% | – | * (EC50>500 nM and % histamine>35%) | 3350 nM
5 | CCCCCCCCCCCCCCCC(=O)N[C@H](C(=O)N[C@H](C(=O)N[C@@H](Cc1ccccc1)C(=O)N[C@@H](CCCNC(=N)N)C(=O)N[C@@H](CO)C(=O)N[C@@H](CO)C(=O)N[C@@H](CCC(=O)O)C(=O)N[C@H](CCCCN)C(=O)N[C@@H](CCCNC(=N)N)C(=O)N1CCC[C@H]1C(=O)N[C@@H](CO)C(=O)N[C@@H](C)C(=O)N[C@@H](CC(=O)O)C(=O)N[C@H](C(=O)N[C@@H](Cc1ccccc1)C(=O)N[C@H](C(N)=O)[C@@H](C)CC)[C@@H](C)CC)C(C)C)[C@@H](C)O [Compound 50] (Palmitoyl-TVFRSSE[dK]RPSADIFI-NH2) | 41% | 16% | – | – | –
6 | CCCCCCCCCCCCCCCC(=O)N[C@H](C(=O)N[C@H](C(=O)N[C@@H](Cc1ccccc1)C(=O)N[C@@H](CCCNC(=N)N)C(=O)N[C@@H](CO)C(=O)N[C@@H](CO)C(=O)N[C@@H](CCC(=O)O)C(=O)N[C@H](CCCCN)C(=O)N[C@@H](CCCNC(=N)N)C(=O)N[C@@H](CCCNC(=N)N)C(=O)N1CCC[C@H]1C(=O)N[C@@H](C)C(=O)N[C@@H](CC(=O)O)C(=O)N[C@H](C(=O)N[C@@H](Cc1ccccc1)C(=O)N[C@H](C(N)=O)[C@@H](C)CC)[C@@H](C)CC)C(C)C)[C@@H](C)O [Compound 51] (Palmitoyl-TVFRSSE[dK]RRPADIFI-NH2) | 60% | 63% | – | – | –
7 | CCCCCCCCCCCCCCCC(=O)N[C@H](C(=O)N[C@H](C(=O)N[C@@H](Cc1ccccc1)C(=O)N[C@@H](CCCNC(=N)N)C(=O)N[C@@H](CO)C(=O)N[C@@H](CO)C(=O)N[C@@H](CCC(=O)O)C(=O)N[C@H](CCCCN)C(=O)N[C@@H](CCCNC(=N)N)C(=O)N[C@@H](CCCNC(=N)N)C(=O)N[C@@H](CO)C(=O)N1CCC[C@H]1C(=O)N[C@@H](CC(=O)O)C(=O)N[C@H](C(=O)N[C@@H](Cc1ccccc1)C(=O)N[C@H](C(N)=O)[C@@H](C)CC)[C@@H](C)CC)C(C)C)[C@@H](C)O [Compound 52] (Palmitoyl-TVFRSSE[dK]RRSPDIFI-NH2) | 45% | 75% | – | – | –
8 | CCCCCCCCCCCCCCCC(=O)N[C@H](C(=O)N[C@H](C(=O)N[C@@H](Cc1ccccc1)C(=O)N[C@@H](CCCNC(=N)N)C(=O)N[C@@H](CO)C(=O)N[C@@H](CO)C(=O)N[C@@H](CCC(=O)O)C(=O)N[C@H](CCCCN)C(=O)N[C@@H](CCCNC(=N)N)C(=O)N[C@@H](CCCNC(=N)N)C(=O)N[C@@H](CO)C(=O)N[C@@H](C)C(=O)N1CCC[C@H]1C(=O)N[C@H](C(=O)N[C@@H](Cc1ccccc1)C(=O)N[C@H](C(N)=O)[C@@H](C)CC)[C@@H](C)CC)C(C)C)[C@@H](C)O [Compound 53] (Palmitoyl-TVFRSSE[dK]RRSAPIFI-NH2) | 75% | 115% | – | – | –
9 | CCCCCCCCCCCCCCCC(=O)N[C@H](C(=O)N[C@H](C(=O)N[C@@H](Cc1ccccc1)C(=O)N[C@@H](CCCNC(=N)N)C(=O)N[C@@H](CO)C(=O)N[C@@H](CO)C(=O)N[C@@H](CCC(=O)O)C(=O)N[C@H](CCCCN)C(=O)N[C@@H](CCCNC(=N)N)C(=O)N[C@@H](CCCNC(=N)N)C(=O)N[C@@H](CO)C(=O)N[C@@H](C)C(=O)N[C@@H](CC(=O)O)C(=O)N1CCC[C@H]1C(=O)N[C@@H](Cc1ccccc1)C(=O)N[C@H](C(N)=O)[C@@H](C)CC)C(C)C)[C@@H](C)O [Compound 54] (Palmitoyl-TVFRSSE[dK]RRSADPFI-NH2) | 46% | 60% | – | – | –
10 | CCCCCCCCCCCCCCCC(=O)N[C@H](C(=O)N[C@H](C(=O)N[C@@H](Cc1ccccc1)C(=O)N[C@@H](CCCNC(=N)N)C(=O)N[C@@H](CO)C(=O)N[C@@H](CO)C(=O)N[C@@H](CCC(=O)O)C(=O)N[C@H](CCCCN)C(=O)N[C@@H](CCCNC(=N)N)C(=O)N[C@@H](CCCNC(=N)N)C(=O)N[C@@H](CO)C(=O)N[C@@H](C)C(=O)N[C@@H](CC(=O)O)C(=O)N[C@H](C(=O)N1CCC[C@H]1C(=O)N[C@H](C(N)=O)[C@@H](C)CC)[C@@H](C)CC)C(C)C)[C@@H](C)O [Compound 55] (Palmitoyl-TVFRSSE[dK]RRSADIPI-NH2) | 43% | 33% | – | – | –
11 | CCCCCCCCCCCCCCCC(=O)N[C@H](C(=O)N[C@H](C(=O)N[C@@H](Cc1ccccc1)C(=O)N[C@@H](CCCNC(=N)N)C(=O)N[C@@H](CO)C(=O)N[C@@H](CO)C(=O)N[C@@H](CCC(=O)O)C(=O)N[C@H](CCCCN)C(=O)N[C@@H](CCCNC(=N)N)C(=O)N[C@@H](CCCNC(=N)N)C(=O)N[C@@H](CO)C(=O)N[C@@H](C)C(=O)N[C@@H](CC(=O)O)C(=O)N[C@H](C(=O)N[C@@H](Cc1ccccc1)C(=O)N1CCC[C@H]1C(N)=O)[C@@H](C)CC)C(C)C)[C@@H](C)O [Compound 56] (Palmitoyl-TVFRSSE[dK]RRSADIFP-NH2; C-terminus assumed) | 92% | 50% | – | *** (EC50<100 nM and % histamine>35%) | 15.4 nM
12 | CCCCCCCCCCCCCCCC(=O)N[C@H](C(=O)NC(C)(C)C(=O)N[C@@H](Cc1ccccc1)C(=O)N[C@@H](CCCNC(=N)N)C(=O)N[C@@H](CO)C(=O)N[C@@H](CO)C(=O)N[C@@H](CCC(=O)O)C(=O)N[C@H](CCCCN)C(=O)N[C@@H](CCCNC(=N)N)C(=O)N[C@@H](CCCNC(=N)N)C(=O)N[C@@H](CO)C(=O)N[C@@H](C)C(=O)N[C@@H](CC(=O)O)C(=O)N[C@H](C(=O)N[C@@H](Cc1ccccc1)C(=O)N[C@H](C(N)=O)[C@@H](C)CC)[C@@H](C)CC)[C@@H](C)O [Compound 57] (Palmitoyl-T[Aib]FRSSE[dK]RRSADIFI-NH2; C-terminus assumed) | 77% | 39% | 68 nM | *** (EC50<100 nM and % histamine>35%) | –
